Legend:
Assay type in all cases: biochemical
[1] = biological target: T1, human DNC (mitochondrial deoxynucleotide carrier) (Homo sapiens, UniProt Q9HC21); experiment: Kinetics of [α-35S]dATP/ADP exchange in proteoliposomes reconstituted with recombinant DNC; settings: for Km: external substrate, internal ADP or dADP 10 mM, read-out: transport affinity (Km)
T1 construct: Amino acids are numbered from 1-320; made in house; host or cells: E. coli BL21(DE3), pET21b; inclusion bodies solubilized in sarkosyl, Ni-NTA purified
T1 sequence (Q9HC21 2-320 limits assumed): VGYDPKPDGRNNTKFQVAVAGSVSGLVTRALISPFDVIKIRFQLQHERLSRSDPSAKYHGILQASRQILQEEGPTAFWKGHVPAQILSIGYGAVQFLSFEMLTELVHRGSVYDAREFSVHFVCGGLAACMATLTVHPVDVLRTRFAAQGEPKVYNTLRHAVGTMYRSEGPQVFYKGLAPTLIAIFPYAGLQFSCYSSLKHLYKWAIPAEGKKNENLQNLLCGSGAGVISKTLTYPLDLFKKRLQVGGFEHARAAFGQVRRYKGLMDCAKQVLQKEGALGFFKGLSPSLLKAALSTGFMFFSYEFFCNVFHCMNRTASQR
Method: (§1) FIG. 3. Time course of dATP/ADP exchange and substrate specificity of human DNC. (a) Time course of [α-35 S]dATP/ADP exchange in proteoliposomes reconstituted with the recombinant DNC. [α-35 S]dATP (1 mM) was added to proteoliposomes containing 10 mM ADP (⋄) or 10 mM NaCl (∇). (b) Dependence of DNC activity on internal substrate. Proteoliposomes were preloaded internally with various substrates (concentration 10 mM). Trans-port was started by addition of […] [α-35 S]dATP and stopped after 2 min. The values are means 6 SD of at least three experiments. (c) Inhibition of the rate of [α-35 S]dATP uptake by external substrates. Proteoliposomes were preloaded internally with 10 mM ADP. Transport was started by adding 125 mM [α-35 S]dATP and stopped after 2 min. External substrates (concentration 0.5 mM) were added together with [α-35 S]dATP. The extents of inhibition (%) from a representative experiment are reported. The control value for uninhibited exchange was 0.45 mmol/min per gram of protein.
(§2) The recombinant protein in sarkosyl was reconstituted into liposomes in the presence of substrates (10). Both cardiolipin (1.14 mg/ml) and EDTA (1 mM) were added. Transport was measured at 25° C. with internal and external pHs at 6.8. It was started by adding [α-35S]dATP or [^14C]-ADP and terminated after 2 min by addition of 100 mM of p-chloromercuribenzene sulfonate (10). Entrapped radioactivity was counted (10). The initial transport rate was calculated from the radioactivity taken up by proteoliposomes within 2 min (in the initial linear range). Other transport activities were assayed similarly (10). The amount of DNC incorporated into liposomes was measured as described (11) and varied between 15 and 20% of the protein added to the reconstitution mixture.

[2] = biological target: T1, human DNC (mitochondrial deoxynucleotide carrier); experiment: Homo-exchange of other carrier substrates in DNC proteoliposomes; settings: internal concentration 10 mM; external concentration 1 mM
Method: as §2, with “Both cardiolipin (1.14 mg/ml) and EDTA (1 mM) were added.” left out, “(10).” for “(10). The amount of DNC incorporated into liposomes was measured as described (11) and varied between 15 and 20% of the protein added to the reconstitution mixture.”

[3] = biological target: T1, human DNC (mitochondrial deoxynucleotide carrier); experiment: Dependence of DNC activity ([α-35S]dATP uptake) on internal substrate; settings: internal substrate 10 mM; 2 min
Method: as §1, with “Transport was started by adding 125 mM [α-35 S]dATP and stopped after 2 min.” left out, “reported.” for “reported. The control value for uninhibited exchange was 0.45 mmol/min per gram of protein.”
as §2, with “Both cardiolipin (1.14 mg/ml) and EDTA (1 mM) were added.” left out, “(10).” for “(10). The amount of DNC incorporated into liposomes was measured as described (11) and varied between 15 and 20% of the protein added to the reconstitution mixture.”

SMILES	Km [1] [µM]	rate constant of exchange of [α-35 S]dATP for dADP or ADP (first-order kinetics) ([1]; reconstituted human DNC, 25° C., pH 6.8) [min⁻¹]	homo-exchange catalysed by reconstituted DNC [2]	rate of [α-35 S]dATP uptake into proteoliposomes with internal substrate [3]
Nc1ncnc2c1ncn2[C@H]1C[C@H](O)[C@@H](COP(=O)(O)OP(=O)(O)OP(=O)(O)O)O1 [dATP]	106 ± 15	0.02		
O=C(O)CC(O)C(=O)O (stereo not drawn) [malate]			did not catalyse	
NCCC[C@H](N)C(=O)O [ornithine]			did not catalyse	
N[C@@H](CCC(=O)O)C(=O)O [glutamate]			did not catalyse	
C[N+](C)(C)CC(O)CC(=O)[O-] (stereo not drawn) [carnitine]			did not catalyse	virtually no activity
Nc1ncnc2c1ncn2[C@@H]1O[C@H](COP(=O)(O)OP(=O)(O)O)[C@@H](O)[C@H]1O [ADP]	42.6 ± 4.7			highest rates
O=C(O)CCC(=O)C(=O)O [oxoglutarate]			did not catalyse	virtually no activity
NC(=O)CC[C@H](N)C(=O)O [glutamine]			did not catalyse	
